Test results taken from US12377076B2, “Compounds for treating lymphoma or a T-cell malignant disease” (Purdue Pharma L.P., priority 2018, dated 2025).
Values joined by “and” are separate entries in the source; they are usually repeats but may differ in a detail not shown here. Identical values can stand only once.

Columns and labels:
[1] = tested on: platelets; assay: PK/PD safety modelling: dose-nadir relationship of blood cell counts, platelets; type: in vivo, human; details: (% CV) in table
Source text: The obtained exposure parameters (Cmax and AUC) and PK profiles from individual patients and the respective haematological laboratory data were collected over the treatment duration and analysed regarding the relationship to peripheral blood cell counts (lymphocytes, neutrophils, platelets).
The nadir was defined as the lowest blood cell count observed after the first administration. The nadir was extracted irrespective of the treatment duration, thus, the analysis data set included patients who received only one dose and patients who received multiple treatment cycles with tinostamustine. The baseline blood cell count, which was the count before the first administration, was included in the analysis as the cell count at dose, Cmax or AUC equal to 0. Thus, it was assumed that the baseline blood cell count was the effect level without treatment with tinostamustine. With an exploratory analysis all observations each predictor-nadir relationship was fitted with a least-squares method in R. The dose-nadir relationship was further investigated with a non-linear mixed effects approach. The advantage of the non-linear mixed effects approach compared to the exploratory analysis was that different external and patient factors could be investigated at the same time and the between patient variability can be described. […]

[2] = tested on: patients with relapsed/refractory hematologic malignancies; assay: Tumour assessment: response to treatment, all HM; type: in vivo, human; details: all 46 patients
Source text: Response to treatment included evaluation of overall response rate (patients with a CR plus patients with a PR), clinical benefit (CB) rate (patients with CR plus patients with PR plus patients with stable disease (SD)), progression free survival, and overall survival according to the relevant response criteria.

[3] = tested on: lymphoma; details: in vitro and in vivo models; cited from earlier work

Which “EC50 (dose required to reduce the cell count by 50%)” value [1] does the source give for `Cn1c(CCCCCCC(=O)NO)nc2cc(N(CCCl)CCCl)ccc21` [tinostamustine] here?
Its value is 55.5 mg/m^2 and 55.5 (72%) mg/m^2.

And the “best response complete response (CR)” value [2]?
The value was 7%.

What about the “best response of PD” value [2] of the same molecule?
The value was 41%.

And the “best response partial response (PR)” value [2]?
Its value is 21%.

What about the “clinical benefit rate (CBR)” value [2] of the same molecule?
The value was 45%.

What about the “overall response rate (ORR)” value [2] of the same molecule?
Its value is 28%.

And the activity against lymphoma [3]?
Its activity against lymphoma is “potent activity”.
